Here are results for two compounds from US10098900B2, “Pharmaceutical compositions and their use for treatment of cancer and autoimmune diseases” (ZHEJIANG DTRM BIOPHARMA CO. LTD., priority 2015, dated 2018).

One assay concerns DoHH-2 cell line. As to the kind of experiment: Inhibition assay of tumor cell activity (cell viability), DoHH-2. It is filed as cell-based. The note with it: Homo sapiens, individual compound, read-out: Inh % on DoHH-2 cell line (AVG). How it is done: (§1) Inhibition Assay of Tumor Cell Activity:
(§2) Tumor cells (TMD-8, DoHH2 and WSU-DLCL2) were transferred and attached to 96-well plates. After one night, blank buffer and selected concentrations (0.01 nM-100 μM) of the test compound solution were added. After 48 hours incubation, CellTiter-Go was added to lyse the cells. Recording luminescent signal and calculate the percent inhibition of cell viability

The subject of assay [1] is resistant WSU-DLCL2 cell line. As to the kind of experiment: Inhibition assay of tumor cell activity (cell viability), WSU-DLCL2. The format is cell-based. As to conditions: Homo sapiens, WSUDLCL2, individual compound, read-out: Inh % on resistant WSU-DLCL2 cell line (AVG). How it is done:
as §1, §2

A further assay deals with TMD-8 lymphoma xenograft. In words: Inhibition of tumor growth in vivo, TMD-8 lymphoma xenograft SCID mouse model. The note with it: TMD-8, Oral, BID. The method, then: Inhibition Study of Tumor Growth In Vivo:
SCID mice or nude mice (weighing about 18 g at the beginning of the experiment) were randomly divided into groups by the software in order to achieve close average weights between groups and control the bias within the allowable range. The mice were injected BTK cell lines (TMD-8, WSU-DLCL2 and DoHH-2) for tumor formation. Inhibitors were administered orally once or twice a day, a total of 14 days, 21 days or 28 days. Body weights and tumor volume were recorded.
Xenograft Tumor Models Inoculated with TMD-8, or DoHH2, or WSU-DLCL2 Tumor Cell Lines:
TMD-8 is a sensitive human diffuse large B-cell lymphoma cell line, and DoHH2 is a more difficult to treat human follicular lymphoma cell line, while WSU-DLCL2 is a multi-drug resistant (MDR) human non-Hodgkin's lymphoma cell line. Drug combination therapies provide better efficacies in all three tumor models than single targeted agent alone.
The TMD-8, DoHH2, WSU-DLCL2 tumor cells were maintained in vitro as a suspension culture in RPMI-1640 medium supplemented with 10% heat inactivated fetal calf serum at 37° C. in an atmosphere of 5% CO2 in air. The tumor cells were routinely subcultured twice weekly. The cells growing in an exponential growth phase were harvested and counted for tumor inoculation. Each mouse was inoculated subcutaneously at the right flank with the tumor cells (10×10^6) in 0.2 ml of PBS with Matrigel (1:1) for tumor development. The treatments were started after the average tumor size reached approximately 100-200 mm^3. Each group consisted of 6-10 tumor-bearing mice. The testing article (vehicle, compound or combination) was orally administrated to the mice according to the predetermined doses for 14-days or 21-days. Animal body weight and tumor volume were measured every 2- or 3-days throughout the treatment.

A further assay concerns TMD-8 cell line. In words: Inhibition assay of tumor cell activity (cell viability), TMD-8. It is filed as cell-based, human. The note with it: Homo sapiens, TMD8, 48 h, individual compound, read-out: Inh % on TMD-8 cell line (AVG). The method, then: as §1, §2
For the next assay, the system named is WSU-DLCL2 xenograft. The note with it: gavage to mice, 480 mg/kg/day, Knutson et al., cited from earlier work.

SMILES strings stand for the structures. Where two headings read alike, the source gives them in different places.

Consider `Nc1cccc2c1C(=O)N(C1CCC(=O)NC1=O)C2=O` (stereo not shown) [Compound 15, Pomalidomide], for which the inhibition at 0.01 µM in the assay with DoHH-2 cell line (0.01 uM) was -7.95%; in assay [1] (0.01 uM), -14.5%; in the assay with TMD-8 cell line (0.01 uM (10 nM)), 45.1%. The inhibition at 0.1 µM is 6.75% in the assay with DoHH-2 cell line (0.1 uM), -8.32% in assay [1] (0.1 uM) and 61.7% in the assay on TMD-8 cell line (0.1 uM (100 nM)). Besides, the inhibition at 1 µM in the assay with DoHH-2 cell line (1 uM) came out at 51.3%; in assay [1] (1 uM), 46.6%; with TMD-8 cell line (1 uM (1,000 nM)), 76.8%. For the same compound, the “Antitumor effect (%)” value is reported as 24% in the assay on TMD-8 lymphoma xenograft (FIG. 2, 14 days, 30 mg/kg) and −8% in the assay on TMD-8 lymphoma xenograft (FIG. 3, 21 days, 10 mg/kg).

Consider `CCN(c1cc(-c2ccc(CN3CCOCC3)cc2)cc(C(=O)NCc2c(C)cc(C)[nH]c2=O)c1C)C1CCOCC1` [EPZ-6438], for which the “effect against the WSU-DLCL tumor” value is listed as “achieved a similar effect” in the assay with WSU-DLCL2 xenograft and “inhibited tumor growth” in the assay on WSU-DLCL2 xenograft (listed as EZ-6438).
